ChEMBL document CHEMBL5506048, “Modular Biomimetic Strategy Enables Discovery and SAR Exploration of Oxime Macrocycles as Influenza A Virus (H1N1) Inhibitors” (J Med Chem, 2024)
The source made the active and inactive calls. The calls are words filed in the database; no cut-off is given here.

What was measured:
[1] = system: Influenza A virus; assay: Antiviral activity against Influenza virus H1N1 A/Puerto Rico/8/34 (A/PR/8/34) infected in human Calu-3 cells assessed as viral RNA measured after 3 days by one-time real time PCR assay; type: functional, organism-based
[2] = system: Calu-3; assay: Cytotoxicity against human Calu-3 cells assessed as cell viability measured after 3 days by CellTiter-Lumi Steady Plus Luminescent Cell Viability Assay Kit; type: functional; settings: Calu-3, 72 h, time 3 day
[3] = Selectivity index, ratio of CC50 for human Calu-3 cells to EC50 for antiviral activity against Influenza virus HINI A/Puerto Rico/8/34 (A/PR/8/34); type: toxicity; settings: read-out: Selectivity Index
[4] = system: Influenza A virus; assay: Antiviral activity against Influenza virus H1N1 A/Puerto Rico/8/34 (A/PR/8/34) 2.5TCID50 infected in human Calu-3 cells assessed as reduction in virus-induced cytopathic effect by measuring cell rounding at 0.0156 to 37 uM measured after 3 days by immunofluorescence assay; type: functional, organism-based; settings: dose 0.0156-37 µM, time 3.0 day
[5] = system: Influenza A virus; assay: Antiviral activity against Influenza virus H1N1 A/Puerto Rico/8/34 (A/PR/8/34) 2.5TCID50 infected in human Calu-3 cells assessed as reduction in virus-induced cytopathic effect by measuring degeneration at 0.0156 to 37 uM measured after 3 days by immunofluorescence assay; type: functional, organism-based; settings: dose 0.0156-37 µM, time 3.0 day
[6] = system: Influenza A virus; assay: Antiviral activity against Influenza virus H1N1 A/Puerto Rico/8/34 (A/PR/8/34) 2.5TCID50 infected in human Calu-3 cells assessed as reduction in virus-induced cytopathic effect by measuring sloughing at 0.0156 to 37 uM measured after 3 days by immunofluorescence assay; type: functional, organism-based; settings: dose 0.0156-37 µM, time 3.0 day
[7] = system: Influenza A virus; assay: Antiviral activity against HIV pseudotyped H5N1 HA infected in human 293T cells assessed as inhibition of viral entry into cells by measuring intensity of chemiluminescence measured after 3 days by Bright-Glo luciferase assay; type: functional, organism-based; settings: HEK293T, time 3.0 day
[8] = system: Ebolavirus; assay: Antiviral activity against HIV pseudotyped EBOV GP infected in human 293T cells assessed as inhibition of viral entry into cells by measuring intensity of chemiluminescence measured after 3 days by Bright-Glo luciferase assay; type: functional, organism-based; settings: HEK293T, time 3.0 day
[9] = system: Influenza A virus; assay: Antiviral activity against Influenza virus HIN1 (A/California/07/2009 pdm09) infected in human Calu-3 cells assessed as viral RNA measured after 3 days by one-time real time PCR assay; type: functional, organism-based; settings: Calu-3, 72 h
[10] = system: Influenza A virus; assay: Antiviral activity against Influenza virus H3N2 (A/Hong Kong/8/68) infected in human Calu-3 cells assessed as viral RNA measured after 3 days by one-time real time PCR assay; type: functional, organism-based; settings: Calu-3, 72 h
[11] = system: Influenza B virus; assay: Antiviral activity against Influenza virus Flu B (B/Taiwan/2/62) infected in human Calu-3 cells assessed as viral RNA measured after 3 days by one-time real time PCR assay; type: functional, organism-based; settings: B/Taiwan/2/62, Calu-3, 72 h
[12] = system: Influenza A virus; assay: Synergistic antiviral activity against Influenza virus H1N1 A/Puerto Rico/8/34 (A/PR/8/34) infected in human Calu-3 cells assessed as combination index of 50% inhibition at 0.06 nM in presence of 450 nM oseltamivir acid; type: functional
[13] = system: Influenza A virus; assay: Synergistic antiviral activity against Influenza virus H1N1 A/Puerto Rico/8/34 (A/PR/8/34) infected in human Calu-3 cells assessed as combination index of 50% inhibition at 0.24 nM in presence of 170 nM oseltamivir acid; type: functional
[14] = system: Influenza A virus; assay: Synergistic antiviral activity against Influenza virus H1N1 A/Puerto Rico/8/34 (A/PR/8/34) infected in human Calu-3 cells assessed as combination index of 50% inhibition at 0.98 nM in presence of 172 nM oseltamivir acid; type: functional
[15] = system: Influenza A virus; assay: Synergistic antiviral activity against Influenza virus H1N1 A/Puerto Rico/8/34 (A/PR/8/34) infected in human Calu-3 cells assessed as combination index of 50% inhibition at 2.61 nM in presence of 62.5 nM oseltamivir acid; type: functional
[16] = system: Influenza A virus; assay: Synergistic antiviral activity against Influenza virus H1N1 A/Puerto Rico/8/34 (A/PR/8/34) infected in human Calu-3 cells assessed as combination index of 50% inhibition at 3.91 nM in presence of 83.1 nM oseltamivir acid; type: functional
[17] = system: Influenza A virus; assay: Synergistic antiviral activity against Influenza virus H1N1 A/Puerto Rico/8/34 (A/PR/8/34) infected in human Calu-3 cells assessed as combination index of 50% inhibition at 15.6 nM in presence of 31 nM oseltamivir acid; type: functional
[18] = system: Influenza A virus; assay: Synergistic antiviral activity against Influenza virus H1N1 A/Puerto Rico/8/34 (A/PR/8/34) infected in human Calu-3 cells assessed as combination index of 50% inhibition at 28.3 nM in presence of 3.91 nM oseltamivir acid; type: functional
[19] = Stability of the compound in RPMI 1640 cell culture medium containing 10% fetal bovine serum assessed as compound remaining measured after 24 hrs by LC-MS/MS analysis; type: physicochemical, cell-free; settings: cattle, read-out: Stability
[20] = Stability of the compound in pH 7.4 PBS buffer assessed as compound remaining measured after 24 hrs by LC-MS/MS analysis; type: physicochemical; settings: read-out: Stability
[21] = Half life in ICR (CD-1) mouse at 10 mg/kg, po measured upto 24 hrs by LC-MS/MS analysis; type: ADME, organism-based; settings: in vivo
[22] = Tmax in ICR (CD-1) mouse at 10 mg/kg, po measured upto 24 hrs by LC-MS/MS analysis; type: ADME, organism-based; settings: in vivo
[23] = Cmax in ICR (CD-1) mouse at 10 mg/kg, po measured upto 24 hrs by LC-MS/MS analysis; type: ADME, organism-based; settings: in vivo
[24] = AUC (0 to infinity) in ICR (CD-1) mouse at 10 mg/kg, po measured upto 24 hrs by LC-MS/MS analysis; type: ADME, organism-based; settings: in vivo
[25] = Oral bioavailability in ICR (CD-1) mouse at 10 mg/kg measured upto 24 hrs by LC-MS/MS analysis; type: ADME, organism-based; settings: in vivo
[26] = Half life in ICR (CD-1) mouse at 2 mg/kg, iv measured upto 24 hrs by LC-MS/MS analysis; type: ADME, organism-based; settings: in vivo
[27] = AUC (0 to infinity) in ICR (CD-1) mouse at 2 mg/kg, iv measured upto 24 hrs by LC-MS/MS analysis; type: ADME, organism-based; settings: in vivo
[28] = Clearance in ICR (CD-1) mouse at 2 mg/kg, iv measured upto 24 hrs by LC-MS/MS analysis; type: ADME, organism-based; settings: in vivo
[29] = Volume of distribution in ICR (CD-1) mouse at 2 mg/kg, iv measured upto 24 hrs by LC-MS/MS analysis; type: ADME, organism-based; settings: in vivo
[30] = system: Influenza A virus; assay: Antiviral activity against HIV pseudotyped H1N1 HA infected in human 293T cells assessed as inhibition of viral entry into cells by measuring intensity of chemiluminescence measured after 3 days by Bright-Glo luciferase assay; type: functional, organism-based; settings: HEK293T, time 3.0 day

In the case of C=C1Cc2cc(C(F)(F)F)ccc2C(=O)NCC2(CCC2)/C(=N/OC)CCCOC1=O, the EC50 ([1]; Calu-3, 72 h) is reported as 0.023 µM, the EC90 ([1]; Calu-3, 72 h, time 3 day) is reported as 0.142 µM and the CC50 [2] is reported as over 100 µM. The selectivity ratio [3] was over 4350, the Activity [4] was “Active” and the Activity [5] was “Active”. For the same molecule, the Activity [6] was “Active”, the Activity [7] was “inactive” and the Activity [8] was “inactive”. For the same molecule, the EC50 [9] was 0.062 µM, the EC50 [10] was over 50 µM and the EC50 [11] was over 50 µM. For the same molecule, the CI50 [12] was 0.84, the CI50 [13] was 0.32 and the CI50 [14] was 0.35. The CI50 [15] was 0.2, the CI50 [16] was 0.28 and the CI50 [17] was 0.57. It also gave a CI50 [18] of 0.93, a remaining at 24 h [19] of over 90% and a remaining at 24 h [20] of over 90%. It also gave a half-life [21] of 39 min, a Tmax [22] of 15 min and a Cmax [23] of 2.42 ng/mL. The AUC(0-inf) [24] was 2.65 ng·h/mL, the bioavailability [25] was 0.12% and the half-life [26] was 24.6 min. It also gave an AUC(0-inf) [27] of 222 ng·h/mL, a clearance [28] of 151 mL/min/kg and a Vd [29] of 3.12 L/kg.

C=C1Cc2cc(NC(C)=O)ccc2C(=O)NCC(C)(C)/C(=N/OC)CCCOC1=O showed an EC50 ([1]; Calu-3, 72 h) of 2.69 µM, an EC90 ([1]; Calu-3, 72 h, time 3 day) of 5.06 µM and a CC50 [2] of over 100 µM. For the same molecule, the selectivity ratio [3] was over 37.

In the case of C=C1Cc2cc(C(F)(F)F)ccc2C(=O)NCC2(CCC2)/C(=N/OC)CC[C@H](C)OC1=O, the EC50 ([1]; Calu-3, 72 h) is reported as 0.22 µM, the EC90 ([1]; Calu-3, 72 h, time 3 day) is reported as 0.68 µM and the CC50 [2] is reported as 67.3 µM. It also gave a selectivity ratio [3] of 305.

Work on C=C1Cc2cc(C(F)(F)F)ccc2C(=O)NCC2(CC2)/C(=N/OC)CCCOC1=O yielded an EC50 ([1]; Calu-3, 72 h) of 0.247 µM, an EC90 ([1]; Calu-3, 72 h, time 3 day) of 1.23 µM and a CC50 [2] of over 100 µM. It also gave a selectivity ratio [3] of over 404.

In the case of C=C1Cc2cc(C(F)(F)F)ccc2C(=O)NCC(C)(C)/C(=N/OC)CCC(C)OC1=O (centres undefined), the EC50 ([1]; Calu-3, 72 h) is reported as 0.096 µM, the EC90 ([1]; Calu-3, 72 h, time 3 day) is reported as 0.823 µM and the CC50 [2] is reported as over 100 µM. The selectivity ratio [3] was over 1040.

In the case of C=C1Cc2cc(C(F)(F)F)ccc2C(=O)NCC(C)(C)/C(=N/OC)CCC(CO)OC1=O (centres undefined), the EC50 ([1]; Calu-3, 72 h) is reported as 20.2 µM, the EC90 ([1]; Calu-3, 72 h, time 3 day) is reported as over 100 µM and the CC50 [2] is reported as over 100 µM. It also gave a selectivity ratio [3] of over 4.

C=C1Cc2cc(C(F)(F)F)ccc2C(=O)NCC(C)(C)/C(=N/OCC(F)(F)F)CCCOC1=O showed an EC50 ([1]; Calu-3, 72 h) of 0.428 µM, an EC90 ([1]; Calu-3, 72 h, time 3 day) of 1.87 µM and a CC50 [2] of over 100 µM. For the same molecule, the selectivity ratio [3] was over 233.

Molecule C=C1Cc2ccccc2C(=O)NCC(C)(C)/C(=N/OC)CCCOC1=O has an EC50 ([1]; Calu-3, 72 h) of 0.985 µM, an EC90 ([1]; Calu-3, 72 h, time 3 day) of 18.3 µM and a CC50 [2] of over 100 µM. The selectivity ratio [3] was over 101.

In the case of C=C1Cc2cc(C(F)(F)F)ccc2C(=O)NCC(C)(C)/C(=N/O)CCCCOC1=O, the EC50 ([1]; Calu-3, 72 h) is reported as 57.3 µM, the EC90 ([1]; time 3.0 day) is reported as “inactive” and the CC50 [2] is reported as over 100 µM. The selectivity ratio [3] was over 1.7.

C=C1Cc2cc(C(F)(F)F)ccc2C(=O)NCC(C)(C)/C(=N/OC)CC[C@H](C)OC1=O showed an EC50 ([1]; Calu-3, 72 h) of 0.013 µM, an EC90 ([1]; Calu-3, 72 h, time 3 day) of 0.235 µM and a CC50 [2] of 90.4 µM. The selectivity ratio [3] was 6950, the Activity [30] was “Dose-Dependent Effect” and the Activity [7] was “inactive”. The Activity [8] was “inactive”, the EC50 [9] was 0.048 µM and the EC50 [10] was over 50 µM. The EC50 [11] was over 50 µM.

Molecule C=C1Cc2cc(C(F)(F)F)ccc2C(=O)NCC(C)(C)/C(=N/OC)CC[C@@H](C)OC1=O has an EC50 ([1]; Calu-3, 72 h) of 1.47 µM, an EC90 ([1]; Calu-3, 72 h, time 3 day) of over 100 µM and a CC50 [2] of 26.5 µM. It also gave a selectivity ratio [3] of 18.

With C=C1Cc2cc(N3CCOCC3)ccc2C(=O)NCC(C)(C)/C(=N/OC)CCCOC1=O the EC50 ([1]; Calu-3, 72 h) was 17.9 µM, the EC90 ([1]; time 3.0 day) was “inactive” and the CC50 [2] was over 100 µM. For the same molecule, the selectivity ratio [3] was over 8.

With C=C1Cc2cc(C(F)(F)F)ccc2C(=O)NCC(C)(C)/C(=N/OC)CCCNC1=O the EC50 ([1]; Calu-3, 72 h) was 0.657 µM, the EC90 ([1]; Calu-3, 72 h, time 3 day) was 1.39 µM and the CC50 [2] was over 100 µM. The selectivity ratio [3] was over 152.
